Experimental data from the supplement of paper PMC5908809.

Tests used:
[1] = test system: normal NK cells expanded with K562-aAPC; experiment: percent inhibition of viability; higher = more inhibition; conditions: 72 h, IL-2 2.5 ng/mL
Experimental: (§1)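 Drug sensitivity and resistance testing on K562-aAPC-expanded normal NK cells: 5 concentrations (10-fold steps over a 10,000-fold range), 72 h at 37 °C, viability by CellTiter-Glo normalised to DMSO and benzethonium chloride controls; DSS from the fitted curve.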

[2] = test system: normal NK cells expanded with K562-aAPC; experiment: drug sensitivity score (DSS) (DSS units); higher = more sensitive; extreme values may be limits of the assay; conditions: 72 h; IL-2 2.5 ng/mL
Experimental: as §1

[3] = test system: normal primary NK cells, pool 1 (3 donors) (IL-2 2.5 ng/mL); experiment: as above; conditions: 72 h
NK-YS (IL-2 2.5 ng/mL) [4] = experiment: as above; conditions: 72 h
KAI3 (IL-2 2.5 ng/mL) [5] = experiment: as above; conditions: 72 h
[6] = test system: normal primary NK cells, pool 1 (3 donors), resting (IL-2 0 ng/mL); experiment: as above; conditions: 72 h
[7] = test system: normal primary NK cells, pool 2 (3 donors) (IL-2 2.5 ng/mL); experiment: as above; conditions: 72 h
SNK-6 (IL-2 2.5 ng/mL) [8] = experiment: as above; conditions: 72 h
DERL-7 (IL-2 2.5 ng/mL) [9] = experiment: as above; conditions: 72 h
[10] = test system: normal primary NK cells, pool 3 (3 donors) (IL-2 2.5 ng/mL); experiment: as above; conditions: 72 h
IMC-1 (IL-2 20 ng/mL) [11] = experiment: as above; conditions: 72 h
NK-92 (IL-2 2.5 ng/mL) [12] = experiment: as above; conditions: 72 h
KHYG-1 (IL-2 2.5 ng/mL) [13] = experiment: as above; conditions: 72 h
YT (IL-2 2.5 ng/mL) [14] = experiment: as above; conditions: 72 h
NKL (IL-2 2.5 ng/mL) [15] = experiment: as above; conditions: 72 h
[16] = test system: normal primary NK cells, pool 1 (3 donors) (IL-2 2.5 ng/mL); experiment: percent inhibition of viability; higher = more inhibition; conditions: 72 h
NK-YS (IL-2 2.5 ng/mL) [17] = experiment: as above; conditions: 72 h
KAI3 (IL-2 2.5 ng/mL) [18] = experiment: as above; conditions: 72 h
[19] = test system: normal primary NK cells, pool 1 (3 donors), resting (IL-2 0 ng/mL); experiment: as above; conditions: 72 h
[20] = test system: normal primary NK cells, pool 2 (3 donors) (IL-2 2.5 ng/mL); experiment: as above; conditions: 72 h
SNK-6 (IL-2 2.5 ng/mL) [21] = experiment: as above; conditions: 72 h
DERL-7 (IL-2 2.5 ng/mL) [22] = experiment: as above; conditions: 72 h
[23] = test system: normal primary NK cells, pool 3 (3 donors) (IL-2 2.5 ng/mL); experiment: as above; conditions: 72 h
IMC-1 (IL-2 20 ng/mL) [24] = experiment: as above; conditions: 72 h
NK-92 (IL-2 2.5 ng/mL) [25] = experiment: as above; conditions: 72 h
KHYG-1 (IL-2 2.5 ng/mL) [26] = experiment: as above; conditions: 72 h
YT (IL-2 2.5 ng/mL) [27] = experiment: as above; conditions: 72 h
NKL (IL-2 2.5 ng/mL) [28] = experiment: as above; conditions: 72 h

COc1ccc(C2=N[C@@H](c3ccc(Cl)cc3)[C@@H](c3ccc(Cl)cc3)N2C(=O)N2CCNC(=O)C2)c(OC(C)C)c1 [Nutlin-3] (max concentration tested 10000 nM)
percent inhibition of viability [%]
Conditions | 1 nM | 10 nM | 100 nM | 1000 nM | 10000 nM
DERL-7 (IL-2 2.5 ng/mL) [22] | 0.15 | 0.54 | 7.5 | 29 | 99.3
IMC-1 (IL-2 20 ng/mL) [24] | -5.54 | -4.03 | -1.5 | -1.01 | 21.2
KAI3 (IL-2 2.5 ng/mL) [18] | -3.27 | -5.08 | 7.55 | 34.8 | 60.6
KHYG-1 (IL-2 2.5 ng/mL) [26] | -6.71 | -9.4 | -3.85 | -2.52 | 12.2
NK-92 (IL-2 2.5 ng/mL) [25] | -20.5 | 0.59 | -14.7 | 13 | 28.5
NK-YS (IL-2 2.5 ng/mL) [17] | -2.06 | -4.19 | 0.64 | 37.4 | 83.9
NKL (IL-2 2.5 ng/mL) [28] | 3.59 | -3.19 | 6.18 | 9.61 | 42.5
SNK-6 (IL-2 2.5 ng/mL) [21] | -8.93 | -12 | -4.65 | 42.5 | 85.7
YT (IL-2 2.5 ng/mL) [27] | -1.48 | -2.54 | 1.47 | 19.9 | 69.5
[1] | -4.98 | 0.87 | 1.74 | 19.4 | 99.2
[16] | -5.38 | 6.43 | 9.32 | 29 | 96.8
[19] | -5.64 | 8.67 | 11.7 | 69 | 93.8
[20] | -11.5 | 9.9 | 0.22 | 13.9 | 90
[23] | -6.84 | 5.45 | 0.48 | 4.02 | 75.6

Conditions | drug sensitivity score
DERL-7 (IL-2 2.5 ng/mL) [9] | 9.5
IMC-1 (IL-2 20 ng/mL) [11] | 0.61
KAI3 (IL-2 2.5 ng/mL) [5] | 7.56
KHYG-1 (IL-2 2.5 ng/mL) [13] | 0.02
NK-92 (IL-2 2.5 ng/mL) [12] | 2.8
NK-YS (IL-2 2.5 ng/mL) [4] | 9.5
NKL (IL-2 2.5 ng/mL) [15] | 3.64
SNK-6 (IL-2 2.5 ng/mL) [8] | 10.1
YT (IL-2 2.5 ng/mL) [14] | 6.81
[2] | 8.63
[3] | 9.16
[6] | 14.5
[7] | 7.31
[10] | 4.75

COc1cc2c(NC3CCN(C(C)C)CC3)nc(N3CCC(F)(F)CC3)nc2cc1OCCCN1CCCC1 [UNC0642] (max concentration tested 10000 nM)
percent inhibition of viability [%]
Conditions | 1 nM | 10 nM | 100 nM | 1000 nM | 10000 nM
DERL-7 (IL-2 2.5 ng/mL) [22] | -0.28 | 1.37 | -1.94 | 0.05 | 99.9
IMC-1 (IL-2 20 ng/mL) [24] | -11.9 | -4.05 | -6.38 | 8.61 | 100
KAI3 (IL-2 2.5 ng/mL) [18] | -0.96 | 1.92 | 10.1 | 48.5 | 103
KHYG-1 (IL-2 2.5 ng/mL) [26] | -4.39 | -1.22 | -6.31 | 6.97 | 28.1
NK-92 (IL-2 2.5 ng/mL) [25] | -11 | -2.07 | -11.4 | 3.52 | 49
NK-YS (IL-2 2.5 ng/mL) [17] | -3.38 | -1.95 | 0.35 | 8.5 | 101
NKL (IL-2 2.5 ng/mL) [28] | -6.06 | -13.9 | -8.65 | 22.1 | 105
SNK-6 (IL-2 2.5 ng/mL) [21] | -9.05 | 11.3 | 2.25 | 25.3 | 99.3
YT (IL-2 2.5 ng/mL) [27] | -6.39 | -3.26 | -2.23 | 4.47 | 74.2
[1] | -4.11 | -7.96 | -1.75 | 10.2 | 100
[16] | -1.76 | 13.1 | 19.9 | 18.1 | 101
[19] | 9.19 | 22.7 | 14 | 28.9 | 98.6
[20] | -4.62 | 6.45 | -2.04 | -4.01 | 99.7
[23] | -1.76 | 4.79 | 4.65 | -5.45 | 100

Conditions | drug sensitivity score
DERL-7 (IL-2 2.5 ng/mL) [9] | 5.6
IMC-1 (IL-2 20 ng/mL) [11] | 6.92
KAI3 (IL-2 2.5 ng/mL) [5] | 11.3
KHYG-1 (IL-2 2.5 ng/mL) [13] | 2.2
NK-92 (IL-2 2.5 ng/mL) [12] | 3.1
NK-YS (IL-2 2.5 ng/mL) [4] | 6.94
NKL (IL-2 2.5 ng/mL) [15] | 9.05
SNK-6 (IL-2 2.5 ng/mL) [8] | 9.35
YT (IL-2 2.5 ng/mL) [14] | 4.75
[2] | 7.22
[3] | 8.52
[6] | 9.04
[7] | 5.23
[10] | 5.16

CCC(C)n1ncn(-c2ccc(N3CCN(c4ccc(OCC5COC(Cn6cncn6)(c6ccc(Cl)cc6Cl)O5)cc4)CC3)cc2)c1=O (configuration not stated) [Itraconazole] (max concentration tested 5000 nM)
percent inhibition of viability [%]
Conditions | 0.5 nM | 5 nM | 50 nM | 500 nM | 5000 nM
DERL-7 (IL-2 2.5 ng/mL) [22] | 7.65 | 4.19 | -0.11 | 8.64 | 83.6
IMC-1 (IL-2 20 ng/mL) [24] | -1.82 | -3.66 | -2.37 | 9.1 | 29.4
KAI3 (IL-2 2.5 ng/mL) [18] | 6.2 | -4.32 | -3.2 | 12.8 | 91.9
KHYG-1 (IL-2 2.5 ng/mL) [26] | -2.72 | 3.74 | 1.39 | 6.98 | 98.1
NK-92 (IL-2 2.5 ng/mL) [25] | -7.29 | -11.1 | -8.89 | 38.2 | 91.5
NK-YS (IL-2 2.5 ng/mL) [17] | 3.15 | -1.22 | -1.67 | 8.46 | 68.9
NKL (IL-2 2.5 ng/mL) [28] | 6.31 | -2.93 | -3.73 | -6.13 | 84.8
SNK-6 (IL-2 2.5 ng/mL) [21] | -8.18 | 3.54 | 19.4 | 39.2 | 93.4
YT (IL-2 2.5 ng/mL) [27] | -3.86 | -5.55 | -5.66 | 0.63 | 45.8
[1] | -0.18 | -0.93 | 0.65 | 2.54 | 33
[16] | -10.8 | -2.66 | -5.12 | 4.85 | 30.5
[19] | -22.8 | -11.8 | -19.2 | -4.28 | 28.1
[20] | 0.8 | -6.34 | 8.01 | 14.5 | 25.8
[23] | -9.47 | -2.98 | -1.54 | 12.1 | 22.5

Conditions | drug sensitivity score
DERL-7 (IL-2 2.5 ng/mL) [9] | 6.05
IMC-1 (IL-2 20 ng/mL) [11] | 2.54
KAI3 (IL-2 2.5 ng/mL) [5] | 7.24
KHYG-1 (IL-2 2.5 ng/mL) [13] | 6.51
NK-92 (IL-2 2.5 ng/mL) [12] | 10.1
NK-YS (IL-2 2.5 ng/mL) [4] | 5.2
NKL (IL-2 2.5 ng/mL) [15] | 4.25
SNK-6 (IL-2 2.5 ng/mL) [8] | 10.3
YT (IL-2 2.5 ng/mL) [14] | 2.44
[2] | 1.9
[3] | 2.13
[6] | 0.93
[7] | 2.45
[10] | 2.08
